Reference: patent US20230000936A1, “A[…] ITCHING […] C[…]” (Demetrix, Inc., priority 2021, published 2023)
“Also recorded” adds a separate entry of the source.

Tests used:
Assay type in all cases: cell-based
CHRM2 [1] = target: T1, CHRM2 (Homo sapiens, UniProt P08172); test: GPCR reactivity screen, PathHunter β-Arrestin, agonist assay CHRM2; set-up: concentration or dose not given beside the values; conditions: agonist mode; control acetylcholine
T1 sequence (P08172 1-466): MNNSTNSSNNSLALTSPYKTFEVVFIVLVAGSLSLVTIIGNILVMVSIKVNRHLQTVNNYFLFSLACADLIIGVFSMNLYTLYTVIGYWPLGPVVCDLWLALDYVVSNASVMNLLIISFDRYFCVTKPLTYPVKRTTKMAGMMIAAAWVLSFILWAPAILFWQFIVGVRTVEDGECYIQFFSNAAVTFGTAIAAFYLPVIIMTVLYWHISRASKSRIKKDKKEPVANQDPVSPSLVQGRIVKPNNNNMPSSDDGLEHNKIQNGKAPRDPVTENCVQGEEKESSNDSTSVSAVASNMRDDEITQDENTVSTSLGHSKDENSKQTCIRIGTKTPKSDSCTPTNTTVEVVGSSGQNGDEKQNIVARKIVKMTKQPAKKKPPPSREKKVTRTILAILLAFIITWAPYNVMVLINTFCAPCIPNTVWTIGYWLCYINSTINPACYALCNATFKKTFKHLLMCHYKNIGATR
Method: (§1) To evaluate the role specific cannabinoid compounds play in the neurological signaling pathway for itching, a GPCR reactivity assay was performed to determine the reactivity of 19 cannabinoid compounds to each of CHRM2, EDG3, and MRGPRX2. The evaluated cannabinoid compounds were: CBN, THCV, CBDVA, CBG, CBL, CBC, CBDV, CBDA, CBD, CBGA, (+)-CBD, CBG-C4, CBD-C1, CBD-C2, CBGV, CBGA-C4, CBGVA, CBCA, and CBLA. Acetylcholine was used as the control for CHRM2, sphingosine-1-phosphate was used as the control for EDG3; and cortistatin 14 was used as the control for MRGPRX2.
(§2) A total of six assays were run. Specifically, agonist and antagonist assays were run for each of CHRM2, EDG3, and MRGPRX2. In each of the three agonist assays, PathHunter® cell lines were removed from a freezer stock and seeded at a volume of 20 μL into white walled, 384-well microplates and incubated at 37° C. Each cell was incubated with a sample to induce a response and then diluted to generate a 5× sample in assay buffer. 5 μL of the 5× sample was then added to cells and incubated at 37° C. for 90 or 180 minutes. The final assay concentration was 1%. The assay signal was generated through addition of 12.5 μL or 15 μL (50% V/V) of a detection reagent cocktail followed by a one hour incubation time at room temperature. Microplates were read following signal generation with a PerkinElmer Envision™ (PerkinElmer Inc., Waltham, Mass.) for chemiluminescent signal detection. Reactivity was analyzed using the CBIS data analysis suite (ChemInnovation, CA) where RLU refers to the raw measured values. The percent activity was then calculated using the formula: % Activity=100%*(mean RLU of test sample−mean RLU of control)/(mean max control ligand−mean RLU of vehicle control).
(§3) As used herein, strong activity against a receptor is considered a percent activity of about 42% or higher. Higher results for antagonism against CHRM2, EDGE, and MRGPRX2 are considered better. It is further considered better when a cannabinoid inhibits more than one of the receptors.

CHRM2 [2] = target: T1, CHRM2; test: GPCR reactivity screen, PathHunter β-Arrestin, antagonist assay CHRM2; conditions: for CHRM2 (Antagonist) percent inhibition: antagonist mode, agonist challenge at EC80
Method: as §1
(§4) In each of the antagonist assays, PathHunter® cell lines were removed from a freezer stock and seeded at a volume of 20 μL into white walled, 384-well microplates and incubated at 37° C. Each cell was pre-incubated with an antagonist followed by an agonist challenge at the EC80 concentration. Cells were then diluted to generate a 5× sample in assay buffer. 5 μL of the 5× sample was then added to cells and incubated at 37° C. for 30 minutes. Finally, 5 μL of 6×EC80 agonist in assay buffer were added to the cells and incubated at 37° C. for 90 minutes or 180 minutes. The assay signal was generated through addition of 12.5 μL or 15 μL (50% V/V) of a detection reagent cocktail followed by a one hour incubation time at room temperature. Microplates were read following signal generation with a PerkinElmer Envision™ (PerkinElmer Inc., Waltham, Mass.) for chemiluminescent signal detection. Reactivity was analyzed using the CBIS data analysis suite (ChemInnovation, CA) where RLU refers to the raw measured values. The percent inhibition was calculated using the formula: % Inhibition=100%*(1−mean RLU of test sample−mean RLU of control)/(mean RLU of EC80 control−mean RLU of vehicle control).
as §3

EDG3 [3] = target: T2, EDG3 (Homo sapiens, UniProt Q99500); test: GPCR reactivity screen, PathHunter β-Arrestin, agonist assay EDG3; set-up: concentration or dose not given beside the values; conditions: agonist mode; control sphingosine-1-phosphate
Method: as §1, §2, §3

EDG3 [4] = target: T2, EDG3; test: GPCR reactivity screen, PathHunter β-Arrestin, antagonist assay EDG3; conditions: for EDG3 (Antagonist) percent inhibition: antagonist mode, agonist challenge at EC80
Method: as §1, §4, §3

MRGPRX2 [5] = target: T3, MRGPRX2 (Homo sapiens, UniProt Q96LB1); test: GPCR reactivity screen, PathHunter β-Arrestin, agonist assay MRGPRX2; conditions: agonist mode; control cortistatin 14
T3 sequence (Q96LB1 1-330): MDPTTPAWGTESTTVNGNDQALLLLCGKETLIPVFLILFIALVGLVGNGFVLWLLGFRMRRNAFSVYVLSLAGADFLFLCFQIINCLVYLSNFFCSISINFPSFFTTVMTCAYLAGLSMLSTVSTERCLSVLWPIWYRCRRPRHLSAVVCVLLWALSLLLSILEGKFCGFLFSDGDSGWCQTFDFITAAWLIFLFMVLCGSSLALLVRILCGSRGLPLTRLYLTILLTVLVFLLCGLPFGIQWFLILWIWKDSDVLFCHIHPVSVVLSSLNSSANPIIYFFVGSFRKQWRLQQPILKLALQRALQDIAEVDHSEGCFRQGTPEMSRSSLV
Method: as §1, §2, §3

MRGPRX2 [6] = target: T3, MRGPRX2; test: GPCR reactivity screen, PathHunter β-Arrestin, antagonist assay MRGPRX2; conditions: for antagonist activity against MRGPRX2 (in words): GPCR reactivity screen; for MRGPRX2 (Antagonist) percent inhibition: antagonist mode, agonist challenge at EC80
Method: as §1, §4, §3

EDG3 [7] = target: T2, EDG3; test: IC50 antagonist activity screen, PathHunter β-Arrestin, EDG3; conditions: for maximum inhibition (antagonism) EDG3: maximum of IC50 curve
Method: as §4
as §3, with “IC50 curves were measured using the same GPCR assay, PathHunter® β-Arrestin from Eurofins DiscoverX Products (Fremont, Calif.), as the GPCR reactivity screen. As” for “As”, “maximum” for “percent”

MRGPRX2 [8] = target: T3, MRGPRX2; test: IC50 antagonist activity screen, PathHunter β-Arrestin, MRGPRX2; conditions: for maximum inhibition (antagonism) MRGPRX2: maximum of IC50 curve
Method: as §4
as §3, with “IC50 curves were measured using the same GPCR assay, PathHunter® β-Arrestin from Eurofins DiscoverX Products (Fremont, Calif.), as the GPCR reactivity screen. As” for “As”, “maximum” for “percent”

CHRM2 [9] = target: T1, CHRM2; test: IC50 antagonist activity screen, PathHunter β-Arrestin, CHRM2; conditions: for maximum inhibition (antagonism) CHRM2: maximum of IC50 curve
Method: as §4
as §3, with “IC50 curves were measured using the same GPCR assay, PathHunter® β-Arrestin from Eurofins DiscoverX Products (Fremont, Calif.), as the GPCR reactivity screen. As” for “As”, “maximum” for “percent”

T2 sequence (Q99500 whole entry): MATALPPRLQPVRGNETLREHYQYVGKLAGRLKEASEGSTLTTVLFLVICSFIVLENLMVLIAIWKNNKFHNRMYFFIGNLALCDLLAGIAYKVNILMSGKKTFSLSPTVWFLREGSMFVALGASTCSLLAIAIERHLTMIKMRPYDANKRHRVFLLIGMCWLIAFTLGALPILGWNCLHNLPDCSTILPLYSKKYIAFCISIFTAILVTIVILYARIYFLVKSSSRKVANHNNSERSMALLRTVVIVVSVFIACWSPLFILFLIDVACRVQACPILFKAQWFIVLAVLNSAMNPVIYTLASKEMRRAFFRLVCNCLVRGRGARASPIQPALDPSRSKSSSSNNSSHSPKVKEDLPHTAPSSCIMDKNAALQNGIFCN

SMILES	CHRM2 (Agonist) percent activity (CHRM2 [1]) [%]	antagonist activity against CHRM2 (in words) (CHRM2 [2]; GPCR reactivity screen)	CHRM2 (Antagonist) percent inhibition (CHRM2 [2]) [%]	EDG3 (Agonist) percent activity (EDG3 [3]) [%]	antagonist activity against EDG3 (in words) (EDG3 [4]; GPCR reactivity screen)	EDG3 (Antagonist) percent inhibition (EDG3 [4]) [%]	MRGPRX2 (Agonist) percent activity (MRGPRX2 [5]) [%]	antagonist activity against MRGPRX2 (in words) (MRGPRX2 [6])	MRGPRX2 (Antagonist) percent inhibition (MRGPRX2 [6]) [%]	maximum inhibition (antagonism) EDG3 (EDG3 [7]) [%]	maximum inhibition (antagonism) MRGPRX2 (MRGPRX2 [8]) [%]	maximum inhibition (antagonism) CHRM2 (CHRM2 [9]) [%]	antagonism of CHRM2 (in words) (CHRM2 [9]; IC50 data)	antagonism of EDG3 (in words) (EDG3 [7]; IC50 data)	antagonism of MRGPRX2 (in words) (MRGPRX2 [8]; IC50 data)
CCCCCc1cc2c(c(O)c1C(=O)O)C=CC(C)(CCC=C(C)C)O2 (centres unmarked) [CBCA, cannabichromenic acid]	−1	do not exhibit an antagonistic effect	7	1	do not exhibit an antagonistic effect	32	4	do not exhibit an antagonistic effect; also recorded: antagonist activity	49	25	35				
C=C(C)[C@@H]1CCC(C)=C[C@H]1c1c(O)cc(CCCCCC)cc1O [CBD-C6, cannabidol hexyl]										11	98	64			
C=C(C)[C@@H]1CCC(C)=C[C@H]1c1c(O)cc(CCCCCCC)cc1O [CBD-C7, cannabidol heptyl]										20	98	90			
C=C(C)[C@@H]1CCC(C)=C[C@H]1c1c(O)cc(CCCCCCCCC)cc1O [CBD-C9, cannabidol nonyl]										0	96	90	remaining as an antagonist	did not act as an antagonist	remaining as an antagonist
C=C(C)[C@@H]1CCC(C)=C[C@H]1c1c(O)cc(CCC)cc1O [CBDV, cannabidivarin]	3		34	1		24	3	antagonist activity	71		59	27			
CCCCCCc1cc(O)c(C/C=C(\C)CCC=C(C)C)c(O)c1 [CBG-C6, cannabigerol hexyl]										15	66	0			
CCCCCCCc1cc(O)c(C/C=C(\C)CCC=C(C)C)c(O)c1 [CBG-C7, cannabigerol heptyl]										32	99	10			
